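In this assay, cells in 96-well plates receive the compound at five concentrations for 48 hours. Endpoints are linearly interpolated between the surrounding concentrations. Abbreviation: GI50, concentration required for 50% inhibition of growth.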 Calls of active or inactive are those of the source. No stated cut-off is given here; in the data, active = GI50 up to about 1.1 µM and inactive = higher.
Experiments:
Test in all cases: NCI-60 cell line screen, 48 h
[1] = test system: A498
[2] = test system: ACHN
[3] = test system: BT-549
[4] = test system: HOP-62
[5] = test system: K562
[6] = test system: KM12
[7] = test system: M14
[8] = test system: MDA-MB-231
[9] = test system: MDA-N
[10] = test system: NCI-H522
[11] = test system: NCI/ADR-RES
[12] = test system: OVCAR-3
[13] = test system: OVCAR-8
[14] = test system: RXF 393
[15] = test system: SF-268
[16] = test system: SF-295
[17] = test system: SK-MEL-2
[18] = test system: SK-MEL-5
[19] = test system: T47D

Measured: GI50

CN(C)CCCNc1cc(O)c2c(c1O)C(=O)c1ccccc1C2=O
inactive: [1] 19.5 µM | [2] 12.9 µM | [3] 17 µM | [4] 11.1 µM | [5] 2.79 µM | [6] 9.4 µM | [7] 5.38 µM | [8] 12.6 µM | [9] 14.3 µM | [10] 21.8 µM | [11] 3.4 µM | [12] 11.3 µM | [13] 12.6 µM | [14] 4.59 µM | [15] 16.8 µM | [16] 13.1 µM | [17] 19.8 µM | [18] 13.2 µM | [19] 19 µM

O=C1N(c2ccccc2)C(=S)/C(=C/c2ccc(Cl)cc2)N1c1ccc(Cl)cc1
inactive: [1] 79.8 µM | [2] 19.1 µM | [3] 44.4 µM | [4] 32.2 µM | [5] 41.9 µM | [6] 52 µM | [7] 61.9 µM | [8] 27 µM | [9] 32.9 µM | [10] 15.9 µM | [11] 77.3 µM | [12] 35.2 µM | [13] 33.6 µM | [14] 33.2 µM | [15] 46.9 µM | [16] 38.4 µM | [17] 43.7 µM | [18] 46.6 µM | [19] 63.8 µM

C=CC(C)CCC(C/C=C(\C)CCC=C(C)C)C(=C)CCCC(C)C (stereo not given)
inactive: [1] > 100 µM | [2] > 100 µM | [3] > 100 µM | [4] > 100 µM | [5] > 100 µM | [6] > 100 µM | [7] > 100 µM | [8] > 100 µM | [9] > 100 µM | [10] > 100 µM | [11] > 100 µM | [12] > 100 µM | [13] > 100 µM | [14] > 100 µM | [15] > 100 µM | [16] > 100 µM | [17] > 100 µM | [18] > 100 µM | [19] > 100 µM

C=CC[C@H]1[C@H](O[Si](C)(C)C(C)(C)C)C=CC(=O)[C@@H]1CC(=O)OCC
inactive: [1] 13.7 µM | [2] 14.2 µM | [3] 16.5 µM | [4] 17.5 µM | [5] 3.13 µM | [6] 13.4 µM | [7] 12.7 µM | [8] 14.5 µM | [9] 15.7 µM | [10] 12.5 µM | [11] 11 µM | [12] 13.1 µM | [13] 16.4 µM | [14] 12.2 µM | [15] 14.4 µM | [16] 13.5 µM | [17] 14.9 µM | [18] 11 µM | [19] 6.04 µM

O=C(O)C12C3CCC(CC3)C1(C(=O)O)C1CCC2C1 (stereo not given)
inactive: [1] > 100 µM | [2] > 100 µM | [3] > 100 µM | [4] > 100 µM | [5] > 100 µM | [6] > 100 µM | [7] > 100 µM | [8] > 100 µM | [9] > 100 µM | [10] 86.1 µM | [11] > 100 µM | [12] > 100 µM | [13] > 100 µM | [14] > 100 µM | [15] > 100 µM | [16] > 100 µM | [17] > 100 µM | [18] > 100 µM | [19] > 100 µM

Fc1cc(C2=C[C@H](c3ccc4c(c3)OCO4)NC(=S)N2)c(Cl)cc1Cl
inactive: [1] 20.8 µM | [2] 28.8 µM | [3] 57 µM | [4] 39.5 µM | [5] 32.1 µM | [6] 38 µM | [7] 40.4 µM | [8] 23.8 µM | [9] 35.6 µM | [10] 31.6 µM | [11] 51.6 µM | [12] 30.2 µM | [13] 41.2 µM | [14] 23 µM | [15] 45.7 µM | [16] 31.9 µM | [17] 20.9 µM | [18] 10.3 µM | [19] 20.2 µM

Nc1nc(Cl)c(N)c(NCC2(CO)CC(OCc3ccccc3)C2)n1 (stereo not given)
inactive: [1] 76.4 µM | [2] > 100 µM | [3] > 100 µM | [4] > 100 µM | [5] 74.6 µM | [6] > 100 µM | [7] > 100 µM | [8] > 100 µM | [9] > 100 µM | [10] > 100 µM | [11] 48 µM | [12] > 100 µM | [13] > 100 µM | [14] > 100 µM | [15] > 100 µM | [16] > 100 µM | [17] > 100 µM | [18] 20.4 µM | [19] 23.7 µM

OC1CN2Cc3cc4c(cc3[C@]13C=C[C@@H](O)CC23)OCO4 (stereo not given in full)
inactive: [1] 34.4 µM | [2] 7.85 µM | [3] 33.4 µM | [4] 41.1 µM | [5] 23.7 µM | [6] 18.1 µM | [7] 20.5 µM | [8] 59.3 µM | [9] 17 µM | [10] 27.3 µM | [11] 54.3 µM | [12] 37.2 µM | [13] 29.2 µM | [14] 15.7 µM | [15] 29.3 µM | [16] 33.6 µM | [17] 31.6 µM | [18] 22.9 µM | [19] 4.82 µM

CC(C)(C)CN1[C@@H]2CCCC[C@H]2N(CC(C)(C)C)P1(=O)C(O)/C=C/c1ccccc1 (stereo not given in full)
inactive: [1] 28.6 µM | [2] 28.9 µM | [3] 74.1 µM | [4] 50.2 µM | [5] 42.6 µM | [6] 33.7 µM | [7] 27.1 µM | [8] 45.9 µM | [9] 35.3 µM | [10] 26.7 µM | [11] 32.7 µM | [12] 34.6 µM | [13] 62.5 µM | [14] 30.3 µM | [15] 39 µM | [16] 29.7 µM | [17] 33.3 µM | [18] 18.3 µM | [19] 26.1 µM

CO/C=C(/C(=O)OC)c1ccccc1[C@H]1C[C@@H]1c1ccccc1
inactive: [1] 27.9 µM | [2] 22.5 µM | [3] 20.5 µM | [4] 35.2 µM | [5] 26.2 µM | [6] 20.1 µM | [7] 19.2 µM | [8] 31.6 µM | [9] 18.7 µM | [10] 12.9 µM | [11] 24 µM | [12] 18.5 µM | [13] 28.7 µM | [14] 49.3 µM | [15] 24.4 µM | [16] 23.1 µM | [17] 17.2 µM | [18] 8.02 µM | [19] 18.6 µM

From ChEMBL document CHEMBL1201862, “PubChem BioAssay data set” (2004)
